Reference: patent publication US12178818B2, “Methods for treating immune thrombocytopenia by administering (R)-2-[3-[4-amino-3-(2-fluoro-4-phenoxy-phenyl)pyrazolo[3,4-d]pyrimidin-1-yl]piperidine-1-carbonyl]-4-methyl-4-[4-(oxetan-3-yl)piperazin-1-yl]pent-2-enenitrile” (Principia Biopharma Inc., priority 2019, dated 2024)

Key:
[1] = system: 251-kinase panel; test: 251-kinase panel, kinase selectivity; format: biochemical; conditions: 1 μM
[2] = system: human B cell activation; test: human B cell activation in vitro; format: cell-based
[3] = system: Fc receptor signaling; test: antibody mediated activation of immune cells in vitro; format: cell-based
[4] = system: rat collagen-induced arthritis model; test: rat collagen-induced arthritis model; format: in vivo
[5] = system: rat antibody-mediated arthus model; test: rat antibody-mediated arthus model; format: in vivo
[6] = system: spontaneous canine pemphigus foliaceus; test: spontaneous canine pemphigus foliaceus; format: in vivo
[7] = system: blood platelets; test: ex vivo platelet aggregation, standard panel of platelet agonists; format: cell-based, human; conditions: for platelet aggregation: ≤1 μM, standard panel of platelet agonists
[8] = in vivo
[9] = target: P-gp (Homo sapiens, UniProt P08183); conditions: not told
[10] = system: CYP3A
[11] = in vivo; remark: listed apart in the source
From the text: TEAEs include all AEs that start on or after the first dose of study medication, or AEs that are present prior to the first dose of study medication, but their severity or relationship increases after the first dose of study medication up to and including the final study medication dosing date. Within each preferred term, patients are counted only once if they had more than one event reported during the dosing period.
Non-hematologic DLT is considered any >Grade 3 non-hematologic toxicity per the NCI Common Terminology Criteria for Adverse Events (CTCAE), version 4.0, with the following exceptions: laboratory TEAEs that are asymptomatic and return to baseline or to Grade 1 within 7 days; fatigue; nausea, vomiting or diarrhea that return to baseline or Grade 1 within 7 days; and systemic reactions (such as, e.g., fever, headache) that return to baseline or Grade 1 within 7 days. Any toxicity that, at the discretion of the Investigator, is thought to warrant withholding the study drug for more than 7 days is also considered a DLT.
The AE Collection Period begins at the time of the first screening/eligibility assessment and ends at the end of the study for each patient. […] An AE can therefore be any unfavorable and unintended sign (including an abnormal laboratory finding, for example), symptom, or disease temporally associated with the use of an investigational product, whether or not considered related to the product. Investigators are instructed to record all AEs encountered during the clinical study in detail from the date of participant consent throughout the study follow-up period. Pre-existing conditions that worsen during a study are reported as AEs.
Investigators are instructed to report all clinical AEs encountered during the study. The intensity of AEs is graded based on the NCI CTCAE, Version 4.0 or higher. For any AEs not found in the CTCAE, a description of intensity grading can be found below: • Grade 1: Mild; asymptomatic or mild symptoms; clinical or diagnostic observations only; intervention not indicated. • Grade 2: Moderate; minimal, local or noninvasive intervention indicated; limiting age-appropriate instrumental activities of daily living. • Grade 3: Severe or medically significant but not immediately life-threatening; hospitalization or prolongation of hospitalization indicated; disabling; limiting self-care activities of daily living.

[12] = Phase 1 study, healthy volunteers; cited from earlier work
[13] = clinical; conditions: human, in vivo
[14] = system: pemphigus patients; test: human pemphigus (PV; Study PRN1008-005)
[15] = system: mouse model of anti-platelet driven immune thrombocytopenia; test: mouse model of immune thrombocytopenia, platelet count

Chain of P-gp (P08183 whole entry): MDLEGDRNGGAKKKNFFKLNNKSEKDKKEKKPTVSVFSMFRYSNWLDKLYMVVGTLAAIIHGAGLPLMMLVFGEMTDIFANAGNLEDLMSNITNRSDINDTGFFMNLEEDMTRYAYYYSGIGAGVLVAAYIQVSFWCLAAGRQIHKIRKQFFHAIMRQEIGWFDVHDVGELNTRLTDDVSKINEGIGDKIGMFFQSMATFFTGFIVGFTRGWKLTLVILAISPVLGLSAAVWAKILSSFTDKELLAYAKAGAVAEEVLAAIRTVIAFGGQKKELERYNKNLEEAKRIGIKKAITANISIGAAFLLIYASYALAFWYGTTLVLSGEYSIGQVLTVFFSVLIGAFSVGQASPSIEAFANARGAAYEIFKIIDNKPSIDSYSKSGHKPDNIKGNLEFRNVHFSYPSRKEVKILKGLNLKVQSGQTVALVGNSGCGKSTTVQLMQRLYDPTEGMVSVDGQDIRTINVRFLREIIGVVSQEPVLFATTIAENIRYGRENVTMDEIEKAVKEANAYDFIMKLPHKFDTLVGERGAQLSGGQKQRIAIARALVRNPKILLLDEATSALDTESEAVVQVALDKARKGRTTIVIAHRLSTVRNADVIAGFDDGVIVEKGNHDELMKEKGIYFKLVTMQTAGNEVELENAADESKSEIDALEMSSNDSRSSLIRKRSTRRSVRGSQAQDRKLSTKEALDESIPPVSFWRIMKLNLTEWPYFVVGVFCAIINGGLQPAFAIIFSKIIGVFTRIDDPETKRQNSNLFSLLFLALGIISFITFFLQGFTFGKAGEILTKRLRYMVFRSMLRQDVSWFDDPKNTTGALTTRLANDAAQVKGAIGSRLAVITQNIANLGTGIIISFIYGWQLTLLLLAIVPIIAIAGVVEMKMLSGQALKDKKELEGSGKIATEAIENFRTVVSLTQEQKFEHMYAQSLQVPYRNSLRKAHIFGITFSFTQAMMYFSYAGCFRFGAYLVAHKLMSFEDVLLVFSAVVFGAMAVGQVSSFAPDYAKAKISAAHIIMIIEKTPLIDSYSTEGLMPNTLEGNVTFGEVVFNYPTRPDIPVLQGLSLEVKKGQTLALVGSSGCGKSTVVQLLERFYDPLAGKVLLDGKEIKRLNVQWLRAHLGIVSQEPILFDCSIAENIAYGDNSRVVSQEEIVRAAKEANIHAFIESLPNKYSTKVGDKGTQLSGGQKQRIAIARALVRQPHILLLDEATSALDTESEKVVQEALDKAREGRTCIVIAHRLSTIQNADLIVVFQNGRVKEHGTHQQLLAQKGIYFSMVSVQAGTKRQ

## CC(C)(C=C(C#N)C(=O)N1CCC[C@@H](n2nc(-c3ccc(Oc4ccccc4)cc3F)c3c(N)ncnc32)C1)N1CCN(C2COC2)CC1 [PRN1008, (R)-2-[3-[4-amino-3-(2-fluoro-4-phenoxy-phenyl)pyrazolo[3,4-d]pyrimidin-1-yl]piperidine-1-carbonyl]-4-methyl-4-[4-(oxetan-3-yl)piperazin-1-yl]pent-2-enenitrile]
[1]
  number of kinases with >90% inhibition: 6 kinases
[2]
  human B cell activation: profoundly inhibits
[3]
  antibody (IgG, IgE) mediated activation of immune cells via Fc receptor signaling: blocks
[4]
  anti-inflammatory effects: rapid and significant anti-inflammatory effects
[5]
  anti-inflammatory effects: rapid and significant anti-inflammatory effects
[6]
  anti-inflammatory effects: rapid and significant anti-inflammatory effects
[7]; blood of ITP patients
  platelet aggregation: no effect
[7]; blood of healthy volunteers
  platelet aggregation: no effect
[7]; normal or ITP patient platelet samples, clinically relevant concentrations
  collagen-induced platelet aggregation: did not impact
[8]
  impact of food on extent of absorption: does not appear to impact
[9]
  P-gp substrate: substrate
[10]
  CYP3A inhibitor: inhibitor
  CYP3A substrate: substrate
[11]; human
  All related TEAEs, Grade 1: 10 (21) n (%)
  All related TEAEs, Grade 2: 11 (23) n (%)
  Related TEAEs, Abdominal distension, Grade 1/2: 3 (10) n (%)
  Related TEAEs, All TEAEs, Grade 1/2: 11 (35) n (%)
  Related TEAEs, Diarrhea, Grade 1: 14 (30) n (%)
  Related TEAEs, Diarrhea, Grade 1/2: 7 (23) n (%)
  Related TEAEs, Diarrhea, Grade 2: 2 (4) n (%)
  Related TEAEs, Fatigue, Grade 1: 5 (11) n (%)
  Related TEAEs, Fatigue, Grade 1/2: 3 (10) n (%)
  Related TEAEs, Fatigue, Grade 2: 1 (2) n (%)
  Related TEAEs, Nausea, Grade 1: 12 (26) n (%)
  Related TEAEs, Nausea, Grade 1/2: 8 (26) n (%)
  Related TEAEs, Nausea, Grade 2: 1 (2) n (%)
[11]
  dose-limiting toxicities: No dose-limiting toxicities were observed
  related serious adverse events: No related serious adverse events were reported
  thrombotic events: no thrombotic events
  treatment related bleeding or thrombotic events: no reported treatment related bleeding or thrombotic events
[12]
  most commonly reported adverse events: gastrointestinal adverse events, including nausea/vomiting and diarrhea
  serious adverse events or deaths: No serious adverse events or deaths were reported
[13]
  Tmax: ~2.5 h
[13]; po
  half-life: 3 to 4 h
[14]; Study PRN1008-005
  onset of clinical effect in most pemphigus patients: ≤ 4 weeks
[14]; human pemphigus vulgaris (PV)
  anti-inflammatory effects: rapid and significant anti-inflammatory effects
[15]; 10 mg/kg/d, anti-platelet challenge (vehicle 83.1%)
  platelet decrease from baseline: 71.9%
[15]; mouse model of immune thrombocytopenia
  platelet-loss (consumption): significant dose dependent reduction
